Reference: US12053465B2, “KCC2 expression enhancing compounds and uses thereof” (Whitehead Institute for Biomedical Research, priority 2017, dated 2024)
Entries after “also recorded” stand apart in the source; their conditions may differ.

Assays:
[1] = tested on: KCC2 expression (KCC2-2A-luciferase reporter); assay: KCC2-2A-luciferase reporter compound screening with RTT KCC2 reporter neurons; assay type: cell-based, human; conditions: MECP2-null RTT human KCC2 reporter neurons; LINCS, SMART, ICCB libraries; Luc/CTG normalized to in-plate DMSO; hit = B score >3
Summary of the method: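 MECP2-null RTT human neurons carrying a KCC2-2A-luciferase reporter, differentiated 4 weeks, were treated with library compounds at 10 μM for 1–2 weeks at 37 °C. Lysate luciferase was normalized to CellTiter-Glo ATP per well and expressed as fold change over in-plate DMSO. Hits were called at B score >3.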

KCC2 expression = assay: Western blot of KCC2 in cultured human RTT neurons; assay type: cell-based; conditions: Western blot; for KCC2 expression: cultured human RTT neurons
Summary of the method: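 Cultured neurons lysed in RIPA buffer (pH 7.6) with sonication; immunoblotted on PVDF with KCC2 antibody (1:2000) overnight at 4° C., HRP secondary.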

[2] = tested on: mouse models of autism and depression; conditions: intraperitoneal (IP) injection; previous work (59, 60); cited from earlier work
Mecp2 mutant mice [3] = assay: Plethysmograph breathing measurement in Mecp2 mutant mouse model of RTT; assay type: in vivo; conditions: male Mecp2 mutant mice; daily injection, two weeks; vs DMSO- or EtOH-injected control
Description: (§1) We assessed the in vivo efficacy of KEECs by treating RTT disease-related symptoms such as breathing pauses and reduced locomotion (58) in a Mecp2 mutant mouse model of RTT. […] Plethysmograph and locomotion measurements were made in 4-6 week-old male Mecp2 mutant animals as a pre-treatment control time point and were then injected daily with KEECs KW-2449 or Piperine. Injection of the solvent DMSO or ethanol (EtOH) served as vehicle controls (FIG. 15A). The same two behavioral measurements in vehicle or KEEC-injected Mecp2 mutant animals were performed again two weeks after the start of daily injections. Each animal's ‘after injection’ data were compared to the ‘before injection’ level to assess behavioral changes.
Male Mecp2 mutant mice (Mecp2^−/y, e.g. the Bird model) between 4-12 weeks of age were used for the in vivo experiments. Subjects were divided into drug treated KO (Piperine/KW-2449), and vehicle treated KO (EtOH/DMSO) groups. Animals were randomly assigned to treatment arms with approximately equivalent numbers in each group. […]
A full body plethysmograph chamber (EMKA Inc, PA) was used to measure breathing patterns. […] For each test, the subject was left in the chamber for 20 minutes, afterwards its breath pattern was recorded for the next 20 minutes, and the estimated amplitude modulation index (eAMI) was calculated from the breath trace to label breath pauses automatically. […]

Mecp2 mutant mice [4] = assay: Locomotion (infrared beam break) in Mecp2 mutant mouse model of RTT; assay type: in vivo
Description: as §1
Male Mecp2 mutant mice (Mecp2^−/y, e.g. the Bird model) between 4-12 weeks of age were used for the in vivo experiments. Subjects were divided into drug treated KO (Piperine/KW-2449), and vehicle treated KO (EtOH/DMSO) groups. Animals were randomly assigned to treatment arms with approximately equivalent numbers in each group.
KW-2449 stock solution was prepared at 10 mg/ml with DMSO, and Piperine stock solution at 30 mg/ml with EtOH. 20 μl of stock solution were diluted with 1 ml saline for injection. Daily drug treatments or sham injections were performed on both groups between P28 and P56, for at least two weeks, as Mecp2 mutant mice start to show symptoms around P28 and die around P60. Both following tests were performed on both groups of mice before the injections start, and repeated at the end of the injection period. The animals' performance was then compared before and after drug/vehicle injections.
To measure the subjects' nighttime locomotion, a 1-D infrared light-beam frame (ActiMot, TSE-systems, MO) was used. Animals were single-housed in new cages with the same setup as their home cages. The infrared monitor was set up for each cage and the beam crossings was recorded between 17:00 and 9:00 the next morning, where the lights were turned off between 19:00 and 7:00. The average beam crossing frequency during the night (21:00-5:00) was used as the subject's activity score, and the average beam crossing frequency after lights on (7:00-9:00) was used as the subject's day time activity score. The time periods where the mouse is stationary for >5 minutes are discarded to reduce artifact caused by the mouse sleeping. As we look at both day-time and night-time locomotion, a bonferroni correction with repeated comparison number of 2 was applied. All behavioral analyses were performed by experimenters who were blind to the treatment condition.

O=C(/C=C/C=C/c1ccc2c(c1)OCO2)N1CCCCC1 [Piperine, (2E,4E)-5-(Benzo[d][1,3]dioxol-5-yl)-1-(piperidin-1-yl)penta-2,4-dien-1-one]
B Score [1]: 4.69
concentration at which treatment significantly increases KCC2 expression (KCC2 expression; cultured ESC-derived human RTT neurons): 10 µM
KCC2 expression (KCC2 expression): induced KCC2 expression in a dose-dependent manner; also recorded: significant increase in KCC2 expression
KCC2 expression (KCC2 expression; listed as piperine): increase KCC2 expression
symptoms in mouse models of autism and depression [2]: improved symptoms
frequency of breathing pauses (Mecp2 mutant mice [3]): significantly reduced the frequency of breathing pauses
day-time locomotion (Mecp2 mutant mice [4]; Mecp2 mutant animals, vs EtOH control): significantly increased day-time locomotion
locomotive activities (Mecp2 mutant mice [4]; male Mecp2 mutant mice, daily injection, two weeks, vs DMSO- or EtOH-injected control): increased locomotive activities
